Source: patent publication US20260297081A1, “COMPOUNDS AND METHODS OF TREATING CANCERS” (Cullgen Inc., priority 2023, published 2026)

Key:
Assay type in all cases: cell-based
Calu-1 cells = assay: Anti-proliferation (viability) of NSCLC Calu-1 cells, 3 days (Table 7, FIG. 2B); settings: Homo sapiens, 72 h; Calu-1 cells, 3 days, 10-point serial dilution; read-out: GI IC50 in Calu-1
Procedure, shortened: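 Seed cells, add compound in ten serially diluted concentrations, then incubate (Calu-1: 3 days; T47D: 6 days) before measuring viability.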

CDK4 [1] = molecular target: T1, CDK4 (Homo sapiens, UniProt P11802+Q16531); assay: CDK4 percentage degradation in Calu-1 cells (Table 6); design: Cells that express cyclin D1-3 and CDK4/6 proteins were treated with heterobifunctional compounds; endogenous in cells; host or cells: Calu-1; settings: 16 hours; for inhibition at 0.04 µM: 40 nM; for inhibition at 0.2 µM: 200 nM
Procedure, shortened: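 Calu-1 cells exposed to heterobifunctional compounds at 40 nM or 200 nM for 16 h. Cyclin D1 and CDK4 levels measured by Western blot of RIPA lysates (BCA-normalised loading), bands quantified by densitometry and expressed as percentage degradation.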
Target sequence in this assay (P11802 2-303 limits assumed): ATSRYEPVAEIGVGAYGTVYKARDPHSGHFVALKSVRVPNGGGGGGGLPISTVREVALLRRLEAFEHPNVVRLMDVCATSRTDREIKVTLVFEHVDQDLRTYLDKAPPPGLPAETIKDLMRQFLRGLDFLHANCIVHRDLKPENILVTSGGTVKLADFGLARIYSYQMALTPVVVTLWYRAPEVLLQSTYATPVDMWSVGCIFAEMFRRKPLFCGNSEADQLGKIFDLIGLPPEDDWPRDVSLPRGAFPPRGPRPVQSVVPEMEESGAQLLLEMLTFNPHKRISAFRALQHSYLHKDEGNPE
Target sequence in this assay (P24385 whole entry partner): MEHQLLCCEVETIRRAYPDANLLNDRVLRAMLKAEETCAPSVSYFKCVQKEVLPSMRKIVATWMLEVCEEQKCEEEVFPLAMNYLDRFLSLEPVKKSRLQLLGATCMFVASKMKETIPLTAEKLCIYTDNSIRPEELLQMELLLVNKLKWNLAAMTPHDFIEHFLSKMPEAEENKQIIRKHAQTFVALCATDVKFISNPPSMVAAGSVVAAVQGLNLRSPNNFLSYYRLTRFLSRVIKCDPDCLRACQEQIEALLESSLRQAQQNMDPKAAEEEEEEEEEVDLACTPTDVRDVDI
Target sequence in this assay (Q16531 2-1140 limits assumed): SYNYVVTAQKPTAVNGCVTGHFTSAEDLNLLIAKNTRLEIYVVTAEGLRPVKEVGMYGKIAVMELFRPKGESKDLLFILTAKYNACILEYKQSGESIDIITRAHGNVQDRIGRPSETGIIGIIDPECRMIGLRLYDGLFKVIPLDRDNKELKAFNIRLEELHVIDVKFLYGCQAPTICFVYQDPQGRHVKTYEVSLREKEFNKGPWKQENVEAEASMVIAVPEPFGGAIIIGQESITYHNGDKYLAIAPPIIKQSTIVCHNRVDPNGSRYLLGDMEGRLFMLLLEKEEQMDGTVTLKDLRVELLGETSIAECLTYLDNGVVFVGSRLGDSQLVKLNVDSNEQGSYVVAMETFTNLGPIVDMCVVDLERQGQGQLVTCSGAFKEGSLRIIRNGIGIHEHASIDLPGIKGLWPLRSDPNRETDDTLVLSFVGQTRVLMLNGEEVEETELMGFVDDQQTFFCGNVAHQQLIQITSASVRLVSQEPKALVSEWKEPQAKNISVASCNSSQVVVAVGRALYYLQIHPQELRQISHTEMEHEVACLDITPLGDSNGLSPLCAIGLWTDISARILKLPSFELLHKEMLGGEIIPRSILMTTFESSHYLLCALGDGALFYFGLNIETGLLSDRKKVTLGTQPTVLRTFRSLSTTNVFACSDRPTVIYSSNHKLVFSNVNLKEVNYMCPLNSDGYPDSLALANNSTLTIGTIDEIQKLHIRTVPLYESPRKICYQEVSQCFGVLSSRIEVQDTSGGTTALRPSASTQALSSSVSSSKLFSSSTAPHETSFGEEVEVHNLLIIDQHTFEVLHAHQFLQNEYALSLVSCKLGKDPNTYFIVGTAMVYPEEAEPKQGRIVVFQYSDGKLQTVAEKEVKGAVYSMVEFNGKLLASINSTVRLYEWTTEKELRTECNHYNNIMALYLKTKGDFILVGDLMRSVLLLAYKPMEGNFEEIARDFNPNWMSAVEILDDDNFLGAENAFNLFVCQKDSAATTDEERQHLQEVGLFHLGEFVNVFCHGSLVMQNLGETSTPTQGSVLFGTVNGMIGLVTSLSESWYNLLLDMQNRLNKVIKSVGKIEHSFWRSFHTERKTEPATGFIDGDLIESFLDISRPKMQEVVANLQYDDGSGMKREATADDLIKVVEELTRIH

MCF7 cells = assay: Anti-proliferation (viability) of MCF7 cells (Table 7, FIG. 2B); settings: Homo sapiens, MCF7, MCF7 cells, 3-6 days, 10-point serial dilution; read-out: GI IC50 in MCF-7
CDK4 [2] = molecular target: T1, CDK4; assay: HiBiT detection of HiBiT-tagged CDK4 protein level in MCF7 cells, 16 hours (Table 8); design: expressed in transfected cells; host or cells: MCF7; settings: MCF7 cells stably expressing HiBiT tagged target proteins; for activity at 0.01 µM: 10 nM, read-out: % CDK4 Relative Level (10 nM); for activity at 0.1 µM: 100 nM, read-out: % CDK4 Relative Level (100 nM)
Experimental: HiBiT detection system quantitatively measures total amounts of HiBiT-tagged proteins using a luminescent based method. MCF7 cells stably expressing HiBiT tagged target proteins were treated with heterobifunctional compounds at indicated concentrations for 16 hours, then lysed with Nano-Glo HiBiT Lytic detection reagents.
Target sequence in this assay (P11802 whole entry): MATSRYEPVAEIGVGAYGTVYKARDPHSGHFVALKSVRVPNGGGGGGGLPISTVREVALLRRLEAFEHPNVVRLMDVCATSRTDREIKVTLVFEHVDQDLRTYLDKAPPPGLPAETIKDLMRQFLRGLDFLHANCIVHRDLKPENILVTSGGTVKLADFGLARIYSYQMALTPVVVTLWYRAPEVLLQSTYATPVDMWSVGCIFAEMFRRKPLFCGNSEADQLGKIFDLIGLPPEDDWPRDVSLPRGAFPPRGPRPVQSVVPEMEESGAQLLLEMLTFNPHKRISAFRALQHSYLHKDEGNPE
Target sequence in this assay (P24385 whole entry partner): as the sequence (P24385 whole entry partner) above
Target sequence in this assay (Q16531 2-1140 limits assumed): as the sequence (Q16531 2-1140 limits assumed) above

| IC50 (Calu-1 cells) | inhibition at 0.04 µM (CDK4 [1]) | inhibition at 0.2 µM (CDK4 [1]) | IC50 (MCF7 cells) | activity at 0.01 µM (CDK4 [2]) | activity at 0.1 µM (CDK4 [2]) | Compound |
| --- | --- | --- | --- | --- | --- | --- |
| 10 to 50 nM | 50 to 80% | > 80% | > 100 nM | – | – | CNc1ccc(C(=O)Nc2ccc(N(C)C)nn2)c(NC2CC3(CC(NC(=O)C(C)(C)N4CCN(c5ccc(Nc6ncc7c(C)c(C(C)=O)c(=O)n(C8CCCC8)c7n6)nc5)CC4)C3)C2)n1 (stereo not shown) [CPD-174, 2-((6-(2-(4-(6-((6-acetyl-8-cyclopentyl-5-methyl-7-oxo-7,8-dihydropyrido[2,3-d]pyrimidin-2-yl)amino)pyridin-3-yl)piperazin-1-yl)-2-methylpropanamido)spiro[3.3]heptan-2-yl)amino)-N-(6-(dimethylamino)pyridazin-3-yl)-6-(methylamino)nicotinamide] |
| ≤ 10 nM | 50 to 80% | 50 to 80% | 50 to 100 nM | – | – | CNc1ccc(C(=O)Nc2ccc(N(C)C)nn2)c(NC2CC(OCCC(=O)N3CCN(c4ccc(Nc5ncc6c(C)c(C(C)=O)c(=O)n(C7CCCC7)c6n5)nc4)CC3)C2)n1 (stereo not shown) [CPD-178, 2-((3-(3-(4-(6-((6-acetyl-8-cyclopentyl-5-methyl-7-oxo-7,8-dihydropyrido[2,3-d]pyrimidin-2-yl)amino)pyridin-3-yl)piperazin-1-yl)-3-oxopropoxy)cyclobutyl)amino)-N-(6-(dimethylamino)pyridazin-3-yl)-6-(methylamino)nicotinamide] |
| 10 to 50 nM | 50 to 80% | 50 to 80% | > 100 nM | – | – | CNc1ccc(C(=O)Nc2ccc(N(C)C)nn2)c(NC2CN(C(=O)CCN3CCN(c4ccc(Nc5ncc6c(C)c(C(C)=O)c(=O)n(C7CCCC7)c6n5)nc4)CC3)C2)n1 [CPD-186, 2-((1-(3-(4-(6-((6-acetyl-8-cyclopentyl-5-methyl-7-oxo-7,8-dihydropyrido[2,3-d]pyrimidin-2-yl)amino)pyridin-3-yl)piperazin-1-yl)propanoyl)azetidin-3-yl)amino)-N-(6-(dimethylamino)pyridazin-3-yl)-6-(methylamino)nicotinamide] |
| 10 to 50 nM | 50 to 80% | 50 to 80% | > 100 nM | – | – | CNc1ccc(C(=O)Nc2ccc(N(C)C)nn2)c(NC2CC3(C2)CC(OC(C)C(=O)N2CCN(c4ccc(Nc5ncc6c(C)c(C(C)=O)c(=O)n(C7CCCC7)c6n5)nc4)CC2)C3)n1 (stereo not shown) [CPD-189, 2-((6-((1-(4-(6-((6-acetyl-8-cyclopentyl-5-methyl-7-oxo-7,8-dihydropyrido[2,3-d]pyrimidin-2-yl)amino)pyridin-3-yl)piperazin-1-yl)-1-oxopropan-2-yl)oxy)spiro[3.3]heptan-2-yl)amino)-N-(6-(dimethylamino)pyridazin-3-yl)-6-(methylamino)nicotinamide] |
| ≤ 10 nM | 50 to 80% | 50 to 80% | 50 to 100 nM | – | – | CNc1ccc(C(=O)Nc2ccc(N(C)C)nn2)c(NC2CCN(C(=O)CN3CCN(c4ccc(Nc5ncc6c(C)c(C(C)=O)c(=O)n(C7CCCC7)c6n5)nc4)CC3)CC2)n1 [CPD-200, 2-((1-(2-(4-(6-((6-acetyl-8-cyclopentyl-5-methyl-7-oxo-7,8-dihydropyrido[2,3-d]pyrimidin-2-yl)amino)pyridin-3-yl)piperazin-1-yl)acetyl)piperidin-4-yl)amino)-N-(6-(dimethylamino)pyridazin-3-yl)-6-(methylamino)nicotinamide] |
| ≤ 10 nM | 50 to 80% | > 80% | < 50 nM | – | – | CNc1ccc(C(=O)Nc2ccc(N(C)C)nn2)c(NC2CC3(C2)CN(C(=O)C(F)(F)CN2CCN(c4ccc(Nc5ncc6c(C)c(C(C)=O)c(=O)n(C7CCCC7)c6n5)nc4)CC2)C3)n1 [CPD-208, 2-((2-(3-(4-(6-((6-acetyl-8-cyclopentyl-5-methyl-7-oxo-7,8-dihydropyrido[2,3-d]pyrimidin-2-yl)amino)pyridin-3-yl)piperazin-1-yl)-2,2-difluoropropanoyl)-2-azaspiro[3.3]heptan-6-yl)amino)-N-(6-(dimethylamino)pyridazin-3-yl)-6-(methylamino)nicotinamide] |
| ≤ 10 nM | – | – | < 50 nM | 55 to 85% | 55 to 85% | [2H]C([2H])([2H])Nc1ccc(C(=O)Nc2ccc(N(C)C)nn2)c(NC2CC3(C2)CN(C(=O)C(C)N2CCN(Cc4ccc(Nc5ncc6c(C)c(C(C)=O)c(=O)n(C7CCCC7)c6n5)nc4)CC2)C3)n1 (stereo not shown) [CPD-456, 2-((2-(2-(4-((6-((6-acetyl-8-cyclopentyl-5-methyl-7-oxo-7,8-dihydropyrido[2,3-d]pyrimidin-2-yl)amino)pyridin-3-yl)methyl)piperazin-1-yl)propanoyl)-2-azaspiro[3.3]heptan-6-yl)amino)-N-(6-(dimethylamino)pyridazin-3-yl)-6-((methyl-d3)amino)nicotinamide] |

The remaining lines, values behind:

| Compound | IC50 (Calu-1 cells) | inhibition at 0.04 µM (CDK4 [1]) | inhibition at 0.2 µM (CDK4 [1]) | IC50 (MCF7 cells) | activity at 0.01 µM (CDK4 [2]) | activity at 0.1 µM (CDK4 [2]) |
| --- | --- | --- | --- | --- | --- | --- |
| CC(=O)c1c(C)c2cnc(Nc3ccc(N4CCN(CC(=O)NC5CC6(C5)CC(Nc5nc(NC(C)C)ccc5C(=O)Nc5cccc(C)n5)C6)CC4)cn3)nc2n(C2CCCC2)c1=O (stereo not shown) [CPD-190, 2-((6-(2-(4-(6-((6-acetyl-8-cyclopentyl-5-methyl-7-oxo-7,8-dihydropyrido[2,3-d]pyrimidin-2-yl)amino)pyridin-3-yl)piperazin-1-yl)acetamido)spiro[3.3]heptan-2-yl)amino)-6-(isopropylamino)-N-(6-methylpyridin-2-yl)nicotinamide] | ≤ 10 nM | 50 to 80% | 50 to 80% | 50 to 100 nM | – | – |
| CC(=O)c1c(C)c2cnc(Nc3ccc(N4CCN(CC(=O)NC5CC6(C5)CC(Nc5nc(NC(C)C)ccc5C(=O)Nc5cc(C)on5)C6)CC4)cn3)nc2n(C2CCCC2)c1=O (stereo not shown) [CPD-199, 2-((6-(2-(4-(6-((6-acetyl-8-cyclopentyl-5-methyl-7-oxo-7,8-dihydropyrido[2,3-d]pyrimidin-2-yl)amino)pyridin-3-yl)piperazin-1-yl)acetamido)spiro[3.3]heptan-2-yl)amino)-6-(isopropylamino)-N-(5-methylisoxazol-3-yl)nicotinamide] | ≤ 10 nM | 50 to 80% | 50 to 80% | 50 to 100 nM | – | – |
| [2H]C([2H])([2H])Nc1ccc(C(=O)Nc2cc(C)n(C)n2)c(NC2CC(CNC(=O)CN3CCN(c4ccc(Nc5ncc6c(C)c(C(C)=O)c(=O)n(C7CCCC7)c6n5)nc4)CC3)C2)n1 (stereo not shown) [CPD-206, 2-((3-((2-(4-(6-((6-acetyl-8-cyclopentyl-5-methyl-7-oxo-7,8-dihydropyrido[2,3-d]pyrimidin-2-yl)amino)pyridin-3-yl)piperazin-1-yl)acetamido)methyl)cyclobutyl)amino)-N-(1,5-dimethyl-1H-pyrazol-3-yl)-6-((methyl-d3)amino)nicotinamide] | ≤ 10 nM | 50 to 80% | 50 to 80% | > 100 nM | – | – |
| CC(=O)c1c(C)c2cnc(Nc3ccc(N4CCN(C5CCN(C(=O)N6CCC(Nc7nc(NC(C)C)ccc7C(=O)Nc7ccc(N(C)C)nn7)CC6)C5)CC4)cn3)nc2n(C2CCCC2)c1=O (stereo not shown) [CPD-469, 2-((1-(3-(4-(6-((6-acetyl-8-cyclopentyl-5-methyl-7-oxo-7,8-dihydropyrido[2,3-d]pyrimidin-2-yl)amino)pyridin-3-yl)piperazin-1-yl)pyrrolidine-1-carbonyl)piperidin-4-yl)amino)-N-(6-(dimethylamino)pyridazin-3-yl)-6-(isopropylamino)nicotinamide] | ≤ 10 nM | – | – | < 50 nM | ≤ 55% | ≤ 55% |
| CC(=O)c1c(C)c2cnc(Nc3ccc(CN4CCN(CC(=O)NC5CC6(C5)CC(Nc5nc(NC(C)C)ccc5C(=O)Nc5ccc(N(C)C)nn5)C6)CC4)cn3)nc2n(C2CCCC2)c1=O (stereo not shown) [CPD-472, 2-((6-(2-(4-((6-((6-acetyl-8-cyclopentyl-5-methyl-7-oxo-7,8-dihydropyrido[2,3-d]pyrimidin-2-yl)amino)pyridin-3-yl)methyl)piperazin-1-yl)acetamido)spiro[3.3]heptan-2-yl)amino)-N-(6-(dimethylamino)pyridazin-3-yl)-6-(isopropylamino)nicotinamide] | ≤ 10 nM | – | – | < 50 nM | 55 to 85% | ≤ 55% |
| CC(=O)c1c(C)c2cnc(Nc3ccc(CN4CCN(CC(=O)NC5CCC(Nc6nc(NC(C)C)ccc6C(=O)Nc6ccc(N(C)C)nn6)CC5)CC4)cn3)nc2n(C2CCCC2)c1=O (stereo not shown) [CPD-473, 2-((4-(2-(4-((6-((6-acetyl-8-cyclopentyl-5-methyl-7-oxo-7,8-dihydropyrido[2,3-d]pyrimidin-2-yl)amino)pyridin-3-yl)methyl)piperazin-1-yl)acetamido)cyclohexyl)amino)-N-(6-(dimethylamino)pyridazin-3-yl)-6-(isopropylamino)nicotinamide] | ≤ 10 nM | – | – | < 50 nM | > 85% | > 85% |
